# Data as given in PubChem BioAssay AID588523 (Johns Hopkins Ion Channel Center, 2011).
# Calls of active or inactive are those of the source.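 How the source made its calls: active means IC50 below 100 µM from duplicate concentration-response curves; inactive means IC50 above 100 µM.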
# Target: Regulator of G-protein signaling 4 (Rattus norvegicus) (UniProt P49799)
# Test: inhibitors of RGS4–Galphao protein interaction, dose response, biochemical, rat RGS4, AlF4-dependent, flow cytometry bead assay (AID 588523)
# Details: FCPIA, RGS4-Galpha-o binding, bead fluorescence
# Regulator of G-protein signaling 4 (Rattus norvegicus), sequence (P49799 whole entry, looked up): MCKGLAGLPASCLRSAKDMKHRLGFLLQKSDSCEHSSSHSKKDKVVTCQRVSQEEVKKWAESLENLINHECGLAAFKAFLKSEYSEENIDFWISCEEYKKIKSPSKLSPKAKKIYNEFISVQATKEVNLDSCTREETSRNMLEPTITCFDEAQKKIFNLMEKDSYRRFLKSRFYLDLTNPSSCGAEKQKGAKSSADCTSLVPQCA
row,SMILES,IC50
1,COC(=O)CSc1[nH]c2ccccc2c1[N+](=O)[O-],> 110 µM (inactive)
2,CCOC(=O)C1=C(O)/C(=C\c2cccc(OC)c2)N=C1C,> 110 µM (inactive)
3,CCCN1CCc2cc(O)cc3c2[C@H]1Cc1ccc(O)c(O)c1-3,9.4 µM
4,Cc1ccc(C(C2C(=O)CC(C)(C)CC2=O)C2C(=O)CC(C)(C)CC2=O)s1,86.8 µM
5,O=C1C=C(NC2=CC3OC(c4ccccc4)OCC3OC2=O)CCC1 (stereo not drawn),> 110 µM (inactive)
6,CC(C)(C)c1ccc(Cn2nnc3c(=O)[nH]c(C4CCN(C(=O)Cc5cccs5)CC4)nc32)cc1,> 110 µM (inactive)
7,CCOC(=O)/C=C/C(=O)OCC(=O)N1CCN(C(=O)c2ccco2)CC1,73.9 µM
8,COC(=O)CSc1[nH]c2cc(C)ccc2c1[N+](=O)[O-],> 110 µM (inactive)
9,CN1C(=O)S/C(=C\c2ccccc2OCc2ccc(C(=O)O)cc2)C1=O,> 110 µM (inactive)
10,Cc1cc(-c2n[nH]c(=S)n2/N=C/C(Br)=C/c2ccccc2)n[nH]1,26.1 µM
11,Cc1cccc(N2C(=O)/C(=C/c3ccc(C(=O)O)cc3)c3ccccc3C2=O)c1,> 110 µM (inactive)
12,O=C(CCNc1ccc(F)cc1)c1ccco1,> 110 µM (inactive)
13,Cn1c(OCc2ccco2)nc2c1c(=O)n(Cc1ccc(Cl)c(Cl)c1)c(=O)n2C,> 110 µM (inactive)
14,O=C(N/N=C/c1cc([N+](=O)[O-])ccc1O)NC12CC3CC(CC(C3)C1)C2,> 110 µM (inactive)
15,COc1ccc2cc(C3C(C#N)=C(N)OC(C)=C3C(C)=O)c(Cl)nc2c1 (stereo not drawn),> 110 µM (inactive)
16,Cc1csc(NC(=O)COCC(=O)O)c1-c1nc2ccccc2s1,> 110 µM (inactive)
17,O=C(/C=C/c1ccncc1)c1ccc2c(c1)OCCO2,82.2 µM
18,O=C(O)c1ccc(/C=C2\COc3ccccc3C2=O)cc1,> 110 µM (inactive)
19,CC(C)OP(=O)(OC(C)C)/C(C=O)=N\Nc1ccc([N+](=O)[O-])cc1,> 110 µM (inactive)
20,Cc1ccc(/C=C/C(=O)N2CC(C)CC(C)C2)o1 (stereo not drawn),74.9 µM

row,SMILES,IC50
1,O=C1/C(=C\c2ccc(Cl)cc2Cl)N2CCC1CC2,> 110 µM (inactive)
2,COc1ccc(NC(=O)/C(C#N)=C\c2ccc(Sc3nncn3C)c([N+](=O)[O-])c2)cc1,> 110 µM (inactive)
3,O=C1N=c2ccccc2=C1c1c(O)n(-c2cccc(F)c2)[nH]c1=O,10.3 µM
4,Cc1ccccc1OCc1nnc(SCC(=O)Nc2ccc3c(c2)oc2ccccc23)n1C,> 110 µM (inactive)
5,CN1CCc2cc(O)cc3c2[C@H]1Cc1ccc(O)c(O)c1-3,7.5 µM
6,COc1ccc(-c2csc(NC3OC(=O)c4c3ccc(OC)c4OC)n2)cc1OC (stereo not drawn),> 110 µM (inactive)
7,Cc1ccc(/C=C2\C(=O)NC(=S)N(c3ccc(F)cc3)C2=O)s1,22.1 µM
8,COc1ccc(OC)c(N2C(=O)NC(=O)/C(=C/c3ccc([N+](=O)[O-])s3)C2=O)c1,11.9 µM
9,CN(C)c1oc(-c2ccccc2[N+](=O)[O-])nc1C#N,> 110 µM (inactive)
10,Cc1nc2c(=O)n(C)c(=O)n(C)c2nc1Cl,78.7 µM
11,Cc1cc2nc(CS)[nH]c2cc1C,23.6 µM
12,O=[N+]([O-])c1ccc(O)c(/C=N/NC(=S)Nc2ccc(Cl)cc2Cl)c1,> 110 µM (inactive)
13,CCOCCCNC(=O)/C(C#N)=C\c1ccc([N+](=O)[O-])o1,> 110 µM (inactive)
14,Cc1c(NC(=O)c2coc(=O)c(Br)c2)c(=O)n(-c2ccccc2)n1C,> 110 µM (inactive)
15,O=C/C=C/c1c(-c2ccccc2)cc2oc3ccccc3cc1-2,> 110 µM (inactive)
16,CN1C(=O)/C(=C\c2ccc(Br)s2)C(=O)NC1=S,12.5 µM
17,CCOCCCNC(=O)/C(C#N)=C\c1ccc(Cl)c([N+](=O)[O-])c1,> 110 µM (inactive)
18,O=C1NC(=S)N(c2ccccc2F)C(=O)/C1=C\c1cccs1,21.3 µM
19,CN1C/C(=C/c2ccncc2)C(=O)/C(=C/c2ccncc2)C1,5.4 µM
20,COc1cc2c(cc1O)C(SC)=NC(C)(C)C2,> 110 µM (inactive)

row,SMILES,IC50
1,COc1ccc(C(C[N+](=O)[O-])c2c(-c3ccccc3)cc3ccccn23)cc1OC (stereo not drawn),> 110 µM (inactive)
2,Cc1ccc(C(C2=C(O)CC(C)(C)CC2=O)C2C(=O)CC(C)(C)CC2=O)o1 (stereo not drawn),> 110 µM (inactive)
3,COc1ccc(NC(=O)/C(Cl)=C(/Cl)S(=O)Cc2ccccc2)cn1 (stereo not drawn),1.7 µM
4,N[C@@H](Cc1cc(Br)c(O)c(Br)c1)C(=O)O,> 110 µM (inactive)
5,CN(C)c1ccc(C(C[N+](=O)[O-])c2c(N)n(C)c(=O)n(C)c2=O)c(F)c1C#N (stereo not drawn),> 110 µM (inactive)
6,O=C1/C(=C\c2ccc(Cl)c(Cl)c2)N2CCC1CC2,> 110 µM (inactive)
7,N#C/C(=C/c1ccc(Cl)c([N+](=O)[O-])c1)c1ccccn1,> 110 µM (inactive)
8,Oc1c(Cl)cc(Cl)c2c1NCCC2,> 110 µM (inactive)
9,CN(C)C(=O)COc1ccc(C(=O)/C=C/c2cccnc2)cc1,> 110 µM (inactive)
10,COc1cccc(/C=C/C(=O)c2c(O)cc(C)oc2=O)c1O,> 110 µM (inactive)
11,O=C(O)c1ccc2c(c1)C(=O)N(c1cccc(C(=O)/C=C/c3ccccc3)c1)C2=O,> 110 µM (inactive)
12,CC1=NOC(=O)/C1=C/c1ccc(O)cc1,> 110 µM (inactive)
13,CC1=NN(c2ccc(C(=O)O)cc2)C(=O)/C1=C\c1ccc(OC(=O)c2cccs2)cc1,44 µM
14,Cc1ccc(CNC(=O)c2cn(C3CCCCC3)c(=O)c3c2c2ccccc2n3C)o1,> 110 µM (inactive)
15,O=C(/C=C/c1ccc([N+](=O)[O-])cc1)c1ccco1,> 110 µM (inactive)
16,O=C(O)c1ccc(/C=C/C(=O)c2ccc3c(c2)OCCCO3)cc1,> 110 µM (inactive)
17,O=C1/C(=C/c2ccncc2)CCC/C1=C\c1ccncc1,13.6 µM
18,NC(=O)N/N=C/c1c(Sc2nnnn2-c2ccccc2)nc2ccccn2c1=O,> 110 µM (inactive)
